# Laboratory results from PubChem BioAssay (NCI).
#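 Method: 48-hour compound exposure of cells in 96-well plates, five concentrations, linear interpolation of endpoints. GI50 is the concentration that inhibits growth by half. TGI marks complete inhibition of growth.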
# How the values were obtained:
# Experiment in all cases: inhibition of tumour cell growth, NCI panel, 48 h
# [1] = test system: RXF 393 renal
# [2] = test system: OVCAR-5 ovarian
# [3] = test system: CAKI-1 renal
# [4] = test system: SW-620 colon
# [5] = test system: IGROV1 ovarian
# [6] = test system: OVCAR-8 ovarian
# [7] = test system: HL-60(TB) leukemia
# [8] = test system: U251 CNS
# [9] = test system: SK-MEL-5 melanoma
# [10] = test system: MALME-3M melanoma
Compound,TGI [1],TGI [2],TGI [3],TGI [4],TGI [5],TGI [6],TGI [7],TGI [8],TGI [9],GI50 [1],GI50 [2],GI50 [3],GI50 [4],GI50 [5],GI50 [6],GI50 [7],GI50 [8],GI50 [9],TGI [10],GI50 [10]
NCCO/C=C/C(N)C(=O)O (centres undefined),> 100 µM,> 100 µM,> 100 µM,> 100 µM,> 100 µM,> 100 µM,> 100 µM,> 100 µM,> 100 µM,,,,,,,,,,,
COc1cc(N2C(=O)[C@H](Cl)C2c2ccc(SC)cc2)cc(OC)c1OC (some centres undefined),> 100 µM,> 100 µM,> 100 µM,> 100 µM,> 100 µM,> 100 µM,0.703 µM,> 100 µM,0.468 µM,38.5 nM,411 nM,0.0484 µM,45.3 nM,67.2 nM,226 nM,142 nM,124 nM,52.2 nM,,
CC1CCC2C(C)C(=O)OC2C2(C)C(=O)C=CC12 (centres undefined),> 10 µM,> 10 µM,> 10 µM,> 10 µM,> 10 µM,> 10 µM,> 10 µM,> 10 µM,> 10 µM,,,,,,,,,,,
C=C1C(=O)O[C@@H]2/C=C(/C)[C@@H](OC(C)=O)C/C=C(\C)C(O)[C@@H](OC(=O)/C(C)=C\C)C12 (some centres undefined),79.4 µM,> 100 µM,54.4 µM,30.1 µM,> 100 µM,75.3 µM,49.6 µM,> 100 µM,32.1 µM,,,,,,,,,,,
Cc1ccc(C2=CC(=O)c3ccccc3C2=O)n1-c1ccccc1,> 100 µM,,,> 100 µM,> 100 µM,> 100 µM,94.2 µM,> 100 µM,> 100 µM,,,,,,,,,,,
COc1cc2c(cc1C)NC(=O)/C2=C/c1ccnc2ccccc12,,> 50 µM,> 50 µM,> 50 µM,> 50 µM,> 50 µM,> 50 µM,35.9 µM,31.3 µM,,30000 nM,16.2 µM,> 50000 nM,12600 nM,19100 nM,30700 nM,9920 nM,7890 nM,,
COc1cc2c(/C=C3\C(=O)Nc4ccccc43)c[nH]c2cc1C,0.71 µM,19.1 µM,13.3 µM,39.8 µM,,7.19 µM,4.45 µM,4.82 µM,1.89 µM,< 23.1 nM,620 nM,0.409 µM,< 20.9 nM,,91.7 nM,494 nM,940 nM,< 15 nM,,
COC(=O)C(C(=O)C(=O)Nc1c(C)cccc1C(C)(C)C)c1nc2ccc(Cl)cc2[nH]c1=O (centres undefined),> 100 µM,> 100 µM,> 100 µM,> 100 µM,> 100 µM,> 100 µM,,> 100 µM,> 100 µM,,,,,,,,,,> 100 µM,
O=C1/C(=C/c2ccccc2)Oc2cc(O)ccc21,> 100 µM,,> 100 µM,> 100 µM,> 100 µM,> 100 µM,> 100 µM,> 100 µM,> 100 µM,,,,,,,,,,,
COc1cc2c(cc1OCCNC(=O)/C=C1\C[C@H]3C=Nc4cc(OCc5ccccc5)c(OC)cc4C(=O)N3C1)N=C[C@@H]1CCCN1C2=O,4.98 µM,26.3 µM,> 100 µM,24.7 µM,5.64 µM,23.1 µM,,8.35 µM,20.8 µM,1980 nM,4070 nM,32.3 µM,5360 nM,1420 nM,3890 nM,,2820 nM,1300 nM,6.69 µM,2200 nM
